The text below walks through data of article PMC4632503, “Targeting of Helicobacter pylori thymidylate synthase ThyX by non-mitotoxic hydroxy-naphthoquinones” (Open Biology, 2015).

Read-outs that look alike come from different tables or passages of the source.

The subject of one data set is H. pylori strain SS1. In words: MIC, broth microdilution test, strain SS1. Type of data set: cell-based. Particulars: Helicobacter pylori, 24 h, read-out: minimal inhibitory concentration (MIC) strain SS1. As for the experimental part:
(§1) The in vitro anti-bacterial activity of 2-OH-1,4-NQ compounds was assessed against the 26695 and SS1 strains of H. pylori. DMSO was used as control in all experiments.
(§2) Disc diffusion tests were performed in triplicate, including a DMSO-only control on each plate, as specified in the electronic supplementary material. Minimal inhibitory concentrations (MICs) were determined using a broth microdilution test in 24-well microtitre plates. For test inocula, an overnight preculture of H. pylori strains 26695 and SS1 was diluted to an OD600 of approximately 0.1 and 0.5 ml of this suspension was transferred to each well. Ten microlitres of twofold serial dilutions of each compound in DMSO, ranging in concentration from 0.625 to 20 µg ml^−1, were added and the covered plates were incubated for 24 h at 37°C with orbital shaking at 140 r.p.m. under microaerophilic conditions. The MIC was determined as the lowest compound concentration resulting in full growth inhibition after 24 h of incubation. All the tests were done in triplicate, including cell-free and DMSO-only controls.
(In general: In broth dilution the organism is exposed to a series of concentrations in liquid medium.)

The target in another data set is T1, HpThyX (Helicobacter pylori, UniProt O26061).
T1 construct: His6; made in house; host or cells: Escherichia coli BL21 (plasmid pGL2, pBAD promoter)
In words: tritium release (deprotonation) assay of [5-3H]dUMP. The settings on record: for remaining activity at 100 µM: 20 min, read-out: inhibition against ThyX (% remaining activity relative to control). The class given is biochemical. As to the method: HpThyX activity was assessed by measuring either deprotonation of [5-^3H]dUMP or NAPDH oxidation activities.
In the tritium release (deprotonation) assays, typical reactions contained 10 mM MgCl2, 10% (v/v) glycerol, 500 µM FAD, 2 mM NADPH, 1 mM CH2H4Folate and 10 mM β-mercaptoethanol in 50 mM HEPES (pH 8). Different concentrations of dUMP were also included in the reaction mixtures. The specific activity of tritiated [5-^3H]dUMP (diammonium salt) stock was 15–30 Ci mmol^−1 (Moravek Biochemicals, CA, USA). 2-OH-1,4-NQ derivatives were prepared at 100 µM in 1% DMSO. Reactions were initiated by adding the enzyme (10 µM) and were stopped after 20 min incubation at 37°C.

Another data set concerns H. pylori strain 26695. In words: MIC, broth microdilution test, strain 26695. The settings on record: Helicobacter pylori, 26695, 24 h, read-out: minimal inhibitory concentration (MIC) strain 26695. The class given is cell-based. As for the experimental part:
as §1, §2

A short description of data set [1]: tolerance of orogastric treatment in infected mice. The class given is in vivo, NMRI mice. The settings on record: orogastric three times a day, 0.375 mg mouse day^−1, one week. As to the method:
NMRI-specific pathogen-free mice (Charles River Laboratories) were orogastrically inoculated with 10^8 CFU of the H. pylori mouse-adapted strain SS1, prepared in 100 μl of peptone broth. Four groups of six to eight mice were infected by H. pylori strain SS1. Earlier experiments have established that after one week, colonization of mice is fully established. A negative control group of five mice was inoculated with peptone broth alone and was not colonized by H. pylori. One week after infection, three groups of mice were treated orogastrically three times a day with 500 µl of either compound 010-C, 010-E or 010-I dissolved in 2% β-cyclodextrin at 0.25 mg ml^−1 (0.375 mg mouse d^−1) during one week. As a control, the fourth group of mice was treated orogastrically three times a day by the same amount of 2% β-cyclodextrin (17.6 mM), the vehicle of the compounds. […] This average size is in agreement with the average size of β-cyclodextrin particles that self-aggregate in water at a concentration of 12 mM [39]. After treatment, viable H. pylori cells, colonizing the mouse stomach, were enumerated by culture of serial dilutions of homogenized tissue on blood agar plates containing bacitracin (200 μg ml^−1) and nalidixic acid (10 μg ml^−1) as in [40].

For data set [2], the system named is AGS cells. In words: mitotoxicity, resazurin reduction. The settings on record: for mitotoxicity: 0.78 to 50 μg ml^−1, 4 h treatment. The class given is cell-based, human. As for the experimental part: Mitochondrial toxicity (mitotoxicity) was assessed by measuring resazurin (7-hydroxy-3H-phenoxazin-3-one 10-oxide) reduction by following absorption changes at 570 nm (Mitochondrial Viability Assay; Abcam). Resazurin is an indicator dye that reports on oxidation–reduction reactions taking place in the mitochondria of living cells. AGS cells (≅2.5 × 10^5cells well^−1) cultured in a DMEM galactose/glutamine-supplemented medium were seeded in sterile white-walled 96-well clear-bottom microplates and treated for 4 h with different doses of 2-OH-1,4-NQ compounds ranging from 0.78 to 50 μg ml^−1. Addition of the stain solution was followed by a further 4 h incubation at 37°C (5% CO2, 90% humidity) and A570 was measured. Rotenone, an inhibitor of the mitochondrial respiratory chain complex I, was used as a positive control.
(In general: The colour change of resazurin is a common sign of viable cells or microbes.)

For data set [3], the system named is AGS cells. In words: cytotoxicity, LDH release. Type of data set: cell-based, human. As to the method:
Cytotoxicity of the 2-OH-1,4-NQ derivatives was assessed by measuring lactate dehydrogenase (LDH) release following manufacturer's instructions (Cytotoxicity Detection Kit; Roche Applied Sciences). Briefly, AGS cells (human gastric adenocarcinoma cell line; ATCC Catalog no. CRL-1739TM) were cultured in Ham's F-12 K medium containing 1% of FBS. A total of 3 × 10^4 cells were added per well in a sterile 96-well tissue culture plate. Cells were then treated with different doses of 2-OH-1,4-NQ compounds ranging from 0.78 to 50 μg ml^−1. After a 24 h incubation at 37°C (5% CO2, 90% humidity), the microplates were centrifuged at 250g for 10 min, and the supernatants were carefully removed and transferred into optically clear 96-well microplates (Greiner Bio-One). The dye solution containing iodotetrazolium chloride and sodium lactate was then added to each well to quantify the amount of LDH released into the extracellular medium. LDH was quantified by measuring the A490 using a PowerWave Microplate Spectrophotometer (BioTek).
A general note: LDH leaks from cells whose membrane has failed.

The mark [4] stands for this setting: semi-quantitative deprotonation assay, remaining activity, lower = stronger inhibition.

T1 sequence (O26061 whole entry): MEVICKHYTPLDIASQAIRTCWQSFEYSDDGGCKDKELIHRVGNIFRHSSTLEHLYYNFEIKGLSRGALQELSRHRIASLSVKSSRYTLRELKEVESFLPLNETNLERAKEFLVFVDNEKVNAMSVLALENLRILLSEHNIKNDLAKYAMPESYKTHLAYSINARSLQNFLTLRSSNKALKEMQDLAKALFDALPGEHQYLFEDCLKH

For orientation: remaining activity means what remains of the control signal, in per cent. For `O=C1C(O)=C(C=Cc2ccc(F)cc2)C(=O)c2ccccc21` [010-J], the MIC stood at 2.5 µg/mL with H. pylori strain SS1 (full growth inhibition), 8.49 µM with H. pylori strain SS1 (value in brackets), 2.5 µg/mL in the data set on H. pylori strain 26695 (full growth inhibition) and 8.49 µM in the data set with H. pylori strain 26695 (value in brackets). In addition, at HpThyX (setting [4]), the remaining activity at 100 µM was 49.7%.

With `O=C1C(O)=C(Cc2cccs2)C(=O)c2ccccc21` [010-D], the MIC in the data set on H. pylori strain SS1 (full growth inhibition) is 10 µg/mL; with H. pylori strain SS1 (value in brackets), 37 µM; in the data set with H. pylori strain 26695 (full growth inhibition) it was 10 µg/mL; in the data set with H. pylori strain 26695 (value in brackets), 37 µM. Further, the remaining activity at 100 µM at HpThyX (setting [4]) came to 36.4%.

`CC(C)Oc1ccc(CC2=C(O)C(=O)c3ccccc3C2=O)cc1` [007-D]: the MIC with H. pylori strain SS1 (full growth inhibition) is 20 µg/mL; in the data set with H. pylori strain SS1 (value in brackets) it was 62 µM; with H. pylori strain 26695 (full growth inhibition), at least 20 µg/mL; in the data set with H. pylori strain 26695 (value in brackets), at least 62 µM. Further, the remaining activity at 100 µM at HpThyX (setting [4]) stood at 45.7%.

With `O=C1C(O)=C(Cc2ccc(-c3ccc(Cl)cc3)cc2)C(=O)c2ccccc21` [007-B], the MIC came out at 10 µg/mL in the data set on H. pylori strain SS1 (full growth inhibition), 26.7 µM in the data set with H. pylori strain SS1 (value in brackets), 10 µg/mL in the data set on H. pylori strain 26695 (full growth inhibition) and 26.7 µM in the data set with H. pylori strain 26695 (value in brackets). The remaining activity at 100 µM on HpThyX (setting [4]) came to 60.2%.

On to `O=C1C(O)=C(Cc2ccc(C(F)(F)F)cc2)C(=O)c2ccccc21` [007-F], for which the MIC with H. pylori strain SS1 (full growth inhibition) came to 10 µg/mL; in the data set with H. pylori strain SS1 (value in brackets), 15.1 µM; in the data set on H. pylori strain 26695 (full growth inhibition), 5 µg/mL; with H. pylori strain 26695 (value in brackets), 15.1 µM. For the same compound, on HpThyX, the remaining activity at 100 µM stood at 60.6%.

Take `O=C1C(O)=C(Cc2ccc(F)c(C(F)(F)F)c2)C(=O)c2ccccc21` [010-E]: in data set [1], the tolerance in mice result was “tolerated in mice”. Also, the “effect on body or stomach weight” value in data set [1] (data not shown) is “None of the aforementioned treatments affected either the body or stomach weight”. In addition, in the data set on AGS cells [2], the mitotoxicity result was “non-mitotoxic”. The “effect on mitochondrial metabolism” value in the data set with AGS cells [2] (low concentrations, resazurin reduction) is “activated the mitochondrial metabolism”. The MIC in the data set with H. pylori strain SS1 (full growth inhibition) is 5 µg/mL; in the data set with H. pylori strain SS1 (value in brackets), 14.3 µM; in the data set on H. pylori strain 26695 (full growth inhibition), 5 µg/mL; with H. pylori strain 26695 (value in brackets), 14.3 µM. Besides, the cytotoxicity entry in the data set on AGS cells [3] (0.78 to 50 μg ml^−1, 24 h) is reported as “non-cytotoxic”. The remaining activity at 100 µM at HpThyX (setting [4]) was determined as 77.7%. Also, the dTMP-forming activity result at HpThyX (quantitative tritium release assay, 100 μM compound, 10 μM ThyX enzyme) is given as “suppressed the dTMP-forming activity”.

As to `O=C1C(O)=C(Cc2ccc(F)cc2)C(=O)c2ccccc21` [007-E], the MIC amounted to 10 µg/mL in the data set with H. pylori strain SS1 (full growth inhibition), 35.4 µM with H. pylori strain SS1 (value in brackets), 10 µg/mL with H. pylori strain 26695 (full growth inhibition) and 35.4 µM in the data set with H. pylori strain 26695 (value in brackets). In addition, on HpThyX (setting [4]), the remaining activity at 100 µM stood at 66.3%.

`COc1ccc(CC2=C(O)C(=O)c3ccccc3C2=O)cc1OC` [010-K]: the MIC with H. pylori strain SS1 (full growth inhibition) worked out at 10 µg/mL; with H. pylori strain SS1 (value in brackets), 30.8 µM; in the data set on H. pylori strain 26695 (full growth inhibition), 20 µg/mL; in the data set on H. pylori strain 26695 (value in brackets) it was 61.7 µM. In addition, the remaining activity at 100 µM on HpThyX (setting [4]) was found to be 75.1%.

In the case of `O=C1C(O)=C(Cc2ccc(Oc3ccccc3)cc2)C(=O)c2ccccc21` [007-G], the MIC was 5 µg/mL in the data set with H. pylori strain SS1 (full growth inhibition), 14 µM in the data set with H. pylori strain SS1 (value in brackets), 20 µg/mL in the data set with H. pylori strain 26695 (full growth inhibition) and 56.2 µM with H. pylori strain 26695 (value in brackets). Also, the remaining activity at 100 µM on HpThyX (setting [4]) was determined as 61.8%.

`O=C1C(O)=C([C@H]2CC[C@H](c3ccc(Cl)cc3)CC2)C(=O)c2ccccc21` [atovaquone, 2-(trans-4-(4-chlorophenyl)cyclohexyl)-3-hydroxy-1,4-naphthoquinone, reference compound]: the mitotoxicity entry in the data set on AGS cells [2] is reported as “targeted mitochondria”. Also, the cytotoxic effect in the data set with AGS cells [3] (25 µg ml^−1, 24 h) is given as 48 ± 5%.

Turning to `COc1cc(CC2=C(O)C(=O)c3ccccc3C2=O)ccc1O` [010-H], the MIC in the data set on H. pylori strain SS1 (full growth inhibition) came to 10 µg/mL; with H. pylori strain SS1 (value in brackets), 32.2 µM; in the data set on H. pylori strain 26695 (full growth inhibition) it was 20 µg/mL; with H. pylori strain 26695 (value in brackets) it was 64.5 µM. Further, the remaining activity at 100 µM at HpThyX (setting [4]) was determined as 57.8%.

Take `O=C1C(O)=C(Cc2cc(F)cc(F)c2)C(=O)c2ccccc21` [010-B]: the MIC in the data set on H. pylori strain SS1 (full growth inhibition) was determined as 10 µg/mL; with H. pylori strain SS1 (value in brackets), 33.3 µM; in the data set on H. pylori strain 26695 (full growth inhibition) it was 10 µg/mL; with H. pylori strain 26695 (value in brackets), 33.3 µM. Further, at HpThyX (setting [4]), the remaining activity at 100 µM was determined as 74.3%.

Turning to `O=C1C(O)=C(Cc2ccc(Cl)cc2)C(=O)c2ccccc21` [010-A], the MIC in the data set on H. pylori strain SS1 (full growth inhibition) was found to be 5 µg/mL; in the data set on H. pylori strain SS1 (value in brackets), 16.7 µM; in the data set on H. pylori strain 26695 (full growth inhibition), 10 µg/mL; in the data set with H. pylori strain 26695 (value in brackets) it was 33.5 µM. The remaining activity at 100 µM at HpThyX (setting [4]) was 49.5%.

In the case of `O=C1C(O)=C(Cc2ccc(F)c(Cl)c2)C(=O)c2ccccc21` [010-F], the MIC worked out at 5 µg/mL in the data set with H. pylori strain SS1 (full growth inhibition), 15.8 µM in the data set with H. pylori strain SS1 (value in brackets), 10 µg/mL in the data set on H. pylori strain 26695 (full growth inhibition) and 31.6 µM in the data set with H. pylori strain 26695 (value in brackets). Also, on HpThyX (setting [4]), the remaining activity at 100 µM is 74.5%.

For `O=C1C(O)=C(Cc2ccc(OC(F)(F)F)cc2)C(=O)c2ccccc21` [007-C], the MIC with H. pylori strain SS1 (full growth inhibition) and in the data set with H. pylori strain 26695 (full growth inhibition) was 5 µg/mL each time. For the same compound, the remaining activity at 100 µM at HpThyX stood at 62.5%.
